Broadly, the GI50 is the concentration at which growth is held to half of that of the control.

The text below walks through data of ChEMBL document CHEMBL1201862, “PubChem BioAssay data set” (2004).

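96-well plates; 48 h exposure; 5 concentrations. Endpoints by linear interpolation between flanking doses. Not reached: highest tested concentration assigned. GI50 = concentration required for 50% inhibition of growth.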 The source made the active and inactive calls. Rule as the data show it: active = GI50 up to about 1.1 µM and inactive = higher.

Some test systems named below: ACHN; HCT-15; HOP-92; HT-29; KM12; M14; NCI-H226; NCI-H522; OVCAR-5; RPMI-8226; RXF 393; SF-268; SF-295; T47D; TK-10; U-251; UACC-62; MOLT-4; SN12C; HL-60.
Holding throughout (assay): DTP human tumour cell line panel, 48 h

`O=C(O)c1nc2cc(C(F)(F)F)ccc2nc1Nc1ccc(Cl)c(Cl)c1`: the GI50 is 11.6 µM (inactive) in the assay on ACHN; 12.3 µM with HCT-15; 11 µM (inactive) in the assay with HOP-92; 15.3 µM (inactive) in the assay on HT-29; 12.9 µM (inactive) in the assay with KM12; 13 µM (inactive) in the assay with M14. Besides, the GI50 is 15.8 µM (inactive) in the assay on NCI-H226; 15.8 µM (inactive) in the assay on NCI-H522; 17.7 µM (inactive) in the assay on OVCAR-5; 6.78 µM (inactive) in the assay on RPMI-8226; 20.9 µM (inactive) in the assay with RXF 393; 16.8 µM (inactive) in the assay on SF-268. Moreover, the GI50 was 10.3 µM (inactive) in the assay on SF-295; 14.1 µM (inactive) in the assay on T47D; 14.2 µM (inactive) in the assay on TK-10; 10.3 µM (inactive) with U-251; 12.3 µM (inactive) with UACC-62.

Turning to `CCCCCCCCCC(=O)NC(CCC(=O)N(CCNC(=O)c1nc(-c2ccccc2)oc1-c1ccccc1)Cc1ccccc1)C(=O)O` (stereo unspecified), the GI50 was 18.8 µM (inactive) in the assay on ACHN; 16 µM in the assay on HCT-15; 17.6 µM (inactive) in the assay on HOP-92; 18 µM (inactive) in the assay with HT-29; 19.7 µM (inactive) in the assay with KM12; 15 µM (inactive) in the assay with M14. Besides, the GI50 with MOLT-4 is 22.4 µM (inactive); in the assay with NCI-H226, 23.8 µM (inactive); with NCI-H522, 18.5 µM (inactive); in the assay with OVCAR-5, 17.1 µM (inactive); with RPMI-8226, 17.3 µM (inactive); in the assay with RXF 393, 17.6 µM (inactive). Besides, the GI50 was 16.5 µM (inactive) in the assay on SF-268; 18.1 µM (inactive) with SF-295; 18.7 µM (inactive) with SN12C; 20.4 µM (inactive) in the assay with T47D; 22.4 µM (inactive) in the assay with TK-10; 18.9 µM (inactive) in the assay with U-251.

In the case of `Cc1ccc(N2C(=O)C3c4[nH]c5ccc(C)cc5c4C4CCC(C(C)(C)C)CC4C3C2=O)cc1` (stereo unspecified), the GI50 in the assay with HCT-15 was 49.8 µM; with HL-60, 17.3 µM (inactive); in the assay with HOP-92, 16.1 µM (inactive); in the assay on HT-29, 15.6 µM (inactive); with KM12, 18 µM (inactive); in the assay with M14, 31 µM (inactive). The GI50 is 2.48 µM (inactive) in the assay with MOLT-4; 21.6 µM (inactive) with NCI-H226; 14.3 µM (inactive) in the assay on NCI-H522; 11.3 µM (inactive) in the assay on OVCAR-5; 12.9 µM (inactive) in the assay on RPMI-8226; 11.9 µM (inactive) with SF-268. Moreover, the GI50 was 15.2 µM (inactive) in the assay with SF-295; 12.6 µM (inactive) with SN12C; 7.5 µM (inactive) in the assay on T47D; 16.5 µM (inactive) in the assay with TK-10; 10.9 µM (inactive) in the assay with U-251; 16.2 µM (inactive) in the assay on UACC-62.

For `CCOC(=O)C1=CN2C(=N[C@H]3CCCC[C@@H]32)NC1=O`, the GI50 in the assay with ACHN is > 100 µM (inactive); in the assay on HCT-15 it was above 100 µM; with HL-60, > 100 µM (inactive); in the assay on HOP-92, > 100 µM (inactive); in the assay with HT-29 it was > 100 µM (inactive); in the assay with KM12, > 100 µM (inactive). The GI50 in the assay with M14, in the assay on MOLT-4, with NCI-H226, in the assay on NCI-H522, in the assay with OVCAR-5 and with RPMI-8226 was > 100 µM (inactive) in each case. The GI50 with SF-268, in the assay with SF-295, in the assay on SN12C, in the assay on T47D, in the assay with TK-10 and in the assay on U-251 was > 100 µM (inactive) in each case. For the same compound, the GI50 with UACC-62 was > 100 µM (inactive).

With `C=C1C(NC)CCC23CC24CCC2(C)C(C(C)=O)C(O)CC2(C)C4CCC13` (stereo unspecified), the GI50 in the assay on ACHN is > 100 µM (inactive); in the assay on HCT-15, above 100 µM; in the assay with HL-60 it was 62.7 µM (inactive); in the assay on HOP-92, > 100 µM (inactive); in the assay on HT-29 it was 21.9 µM (inactive); in the assay with KM12 it was 56.1 µM (inactive). Also, the GI50 in the assay on M14 was > 100 µM (inactive); in the assay on MOLT-4 it was > 100 µM (inactive); with NCI-H226, > 100 µM (inactive); with NCI-H522, 84.9 µM (inactive); in the assay with OVCAR-5, > 100 µM (inactive); in the assay with RPMI-8226 it was 45 µM (inactive). Further, the GI50 in the assay with SF-268 is > 100 µM (inactive); in the assay on SF-295, 28.4 µM (inactive); with SN12C, 20.4 µM (inactive); with T47D, > 100 µM (inactive); in the assay with TK-10, > 100 µM (inactive); with U-251 it was > 100 µM (inactive). The GI50 with UACC-62 was > 100 µM (inactive).

In the case of `Nc1cc(CO)cc(Nc2c3ccccc3nc3ccccc23)c1`, the GI50 in the assay with ACHN was 17.2 µM (inactive); in the assay with HCT-15, 17.6 µM; with HL-60 it was > 100 µM (inactive); in the assay with HT-29 it was 14.7 µM (inactive); with KM12, 16.3 µM (inactive); in the assay on M14, 17.3 µM (inactive). The GI50 is 4.5 µM (inactive) in the assay on MOLT-4; 18.2 µM (inactive) with NCI-H226; 6.59 µM (inactive) with NCI-H522; 16.7 µM (inactive) in the assay with OVCAR-5; 29.8 µM (inactive) in the assay with RPMI-8226; 16.8 µM (inactive) in the assay with RXF 393. The GI50 in the assay on SF-268 is 17.9 µM (inactive); in the assay with SF-295, 10.9 µM (inactive); with SN12C, 18.9 µM (inactive); in the assay with T47D, 18.4 µM (inactive); in the assay with TK-10, 16 µM (inactive); in the assay on U-251, 15.1 µM (inactive). The GI50 with UACC-62 is 17.4 µM (inactive).

In the case of `CC(C)[Si](OC12CCC(CC1O)CC2CO)(C(C)C)C(C)C` (stereo unspecified), the GI50 in the assay with ACHN is 14.2 µM (inactive); with HCT-15, 14.1 µM; in the assay with HL-60, 1.34 µM (inactive); with HOP-92, 12.1 µM (inactive); in the assay with HT-29, 15.5 µM (inactive); with KM12, 12.7 µM (inactive). Also, the GI50 in the assay on M14 was 15.1 µM (inactive); in the assay with MOLT-4, 11.5 µM (inactive); in the assay on NCI-H226 it was 17.3 µM (inactive); in the assay with OVCAR-5, 17.4 µM (inactive); in the assay on RPMI-8226, 10.2 µM (inactive); in the assay on SF-268 it was 14.6 µM (inactive). The GI50 is 12.2 µM (inactive) in the assay on SF-295; 22 µM (inactive) with SN12C; 9.77 µM (inactive) in the assay on T47D; 14.4 µM (inactive) with TK-10; 12.6 µM (inactive) in the assay with U-251; 14.9 µM (inactive) in the assay with UACC-62.

As to `CN1C(C(=O)Nc2ccccn2)=C(O)c2ccccc2S1(=O)=O` [PIROXICAM], the GI50 in the assay with ACHN was > 100 µM (inactive); with HCT-15, above 100 µM; with HL-60, > 100 µM (inactive); in the assay with HT-29, > 100 µM (inactive); in the assay on KM12 it was > 100 µM (inactive); with M14 it was > 100 µM (inactive). Further, the GI50 in the assay on MOLT-4, in the assay with NCI-H226, with NCI-H522, in the assay on OVCAR-5, with RPMI-8226 and with RXF 393 was > 100 µM (inactive) in each case. The GI50 with SF-268, with SF-295, in the assay with SN12C, in the assay on T47D, in the assay with TK-10 and with U-251 was > 100 µM (inactive) in each case. Also, the GI50 in the assay on UACC-62 is > 100 µM (inactive).

For the compound `NNC(=O)c1cccc2c1Oc1ccccc1S2`, the GI50 was > 100 µM (inactive) in the assay on ACHN; above 100 µM in the assay with HCT-15; 79.6 µM (inactive) in the assay on HL-60; > 100 µM (inactive) in the assay with HOP-92; > 100 µM (inactive) in the assay with HT-29; > 100 µM (inactive) in the assay on KM12. Besides, the GI50 in the assay with M14 was > 100 µM (inactive); in the assay with MOLT-4 it was 55 µM (inactive); with NCI-H226, 1.23 µM (inactive); in the assay with RPMI-8226, > 100 µM (inactive); in the assay on RXF 393, 59.3 µM (inactive); with SF-268, 76.2 µM (inactive). For the same compound, the GI50 in the assay with SF-295 is 77.3 µM (inactive); in the assay on T47D, 95.1 µM (inactive); in the assay on TK-10, > 100 µM (inactive); with U-251 it was > 100 µM (inactive); in the assay on UACC-62, > 100 µM (inactive).

For the compound `CC1(C)CC2=NOS3=C2C(=NO3)C1c1ccccn1` (stereo unspecified), the GI50 in the assay on ACHN was 74.8 µM (inactive); in the assay on HCT-15 it was 20 µM; in the assay with HL-60 it was 24.3 µM (inactive); in the assay with HOP-92, > 100 µM (inactive); with HT-29 it was 56.8 µM (inactive); with KM12, 61.2 µM (inactive). Also, the GI50 with M14 is 40.7 µM (inactive); with MOLT-4, 34.3 µM (inactive); in the assay with NCI-H522, 38.5 µM (inactive); in the assay on OVCAR-5, > 100 µM (inactive); with RPMI-8226, > 100 µM (inactive); with SF-268 it was > 100 µM (inactive). Also, the GI50 in the assay on SF-295 was > 100 µM (inactive); in the assay on SN12C, > 100 µM (inactive); in the assay with T47D, > 100 µM (inactive); in the assay on TK-10, > 100 µM (inactive); with U-251, > 100 µM (inactive); in the assay with UACC-62, 44.1 µM (inactive).

For the compound `C[C@]12CC/C(=N\OCCN3CCCCC3)C=C1CCC1C2CC[C@@]2(C)C1CC[C@]2(C)O` (stereo partly specified), the GI50 is 11.4 µM (inactive) with ACHN; 5 µM in the assay on HCT-15; 8.41 µM (inactive) with HOP-92; 2.28 µM (inactive) in the assay on HT-29; 10.4 µM (inactive) in the assay with KM12; 14.2 µM (inactive) in the assay with M14. The GI50 is 2.64 µM (inactive) with MOLT-4; 3.3 µM (inactive) in the assay with NCI-H226; 2.24 µM (inactive) in the assay with NCI-H522; 19.6 µM (inactive) with OVCAR-5; 12.7 µM (inactive) with RPMI-8226; 16.2 µM (inactive) in the assay with RXF 393. In addition, the GI50 was 13.4 µM (inactive) in the assay on SF-268; 3.5 µM (inactive) in the assay with SF-295; 15.3 µM (inactive) in the assay on SN12C; 13.1 µM (inactive) in the assay with T47D; 12.4 µM (inactive) with TK-10; 10.7 µM (inactive) in the assay on U-251. Moreover, the GI50 in the assay with UACC-62 is 9.86 µM (inactive).
